Consider 32 compounds from the METLIN SMRT retention time set (Domingo-Almenara et al. 2019).

Each structure is given as a SMILES string.

This data set in a line: gradient 5% acetonitrile 3 min, to 50% in 2 min, to 85% in 15 min, held 3 min, 100 µL/min. As to conditions: column: Zorbax Extend-C18 2.1 x 50 mm; eluents: water / acetonitrile, 0.1% formic acid. Summed up:
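The mobile phases were water and acetonitrile, each with 0.1% formic acid, pumped at 100 μL/min through a Zorbax Extend-C18 column (2.1 × 50 mm, 1.8 μm). Pure standards were injected as mixtures of ~100 molecules and detected by a quadrupole time-of-flight mass spectrometer in positive and negative ionization mode. Retention time came from computationally picked adduct peaks, each inspected by hand.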
With `O=C(c1cc(-c2ccncc2)n[nH]1)N1CCN(C(=O)c2cc3ccccc3[nH]2)CC1`, the RP-LC retention time is 598 s.

On to `COc1ccc(-c2noc(C3CCCN3C(=O)Nc3ccc4c(c3)OCO4)n2)cc1` (configuration not stated), for which the RP-LC retention time was 884 s.

Compound `O=C(NCCCn1c(-c2ccncc2)nc2cccnc21)NCCc1ccccc1` came in with an RP-LC retention time of 649 s.

In turn, `CCN1C[C@]2(C)CC[C@H](OC)[C@]34C2[C@H](OC(C)=O)[C@@]2(OCO[C@@]25CC(OC)[C@H]2C[C@]3(O)C5[C@H]2OC)C14` (some centres not stated) returned an RP-LC retention time of 662 s.

In turn, `COCCn1ccc2nc(C)c(C(=O)Nc3cccc(SC)c3)cc2c1=O` registered an RP-LC retention time of 746 s.

In turn, `CC1CCCCN1S(=O)(=O)c1cc(-c2nnc(C3CC3)o2)co1` (configuration not stated) gave an RP-LC retention time of 896 s.

Compound `CCC(=O)N1c2ccc(S(=O)(=O)N3CCCCC3)cc2CC1C(=O)NCCc1ccccc1` (configuration not stated) displayed an RP-LC retention time of 720 s.

`Cc1ccsc1C(=O)N1CCN(C(=O)c2cc(-c3ccccn3)n[nH]2)CC1` had an RP-LC retention time of 631 s.

For the compound `O=C(c1ccoc1)N1CCC(N2CC(F)(F)C[C@H]2CO)CC1`, the RP-LC retention time was determined as 539 s.

As for `O=C(NC1CC1)[C@@H]1C[C@H](Oc2ccccc2)CN1C(=O)c1ccsc1`, the RP-LC retention time is 733 s.

As for `CCC(=O)N(C)CCc1noc(-c2ccc(C(=O)NCCN(CC)CC)cc2)n1`, the RP-LC retention time is 597 s.

Take `COc1cc(OC)cc(-c2noc(CCn3nc(-c4ccccc4)ccc3=O)n2)c1`: the RP-LC retention time amounted to 951 s.

`O=C(Nc1ccccc1)C1CC(=O)N(c2ccc3c(c2)CCN3C(=O)C2CCC2)C1` (configuration not stated) had an RP-LC retention time of 792 s.

Consider `CS(=O)(=O)Nc1ccc(C2(C(=O)NCc3cccc(F)c3)CCCCC2)cc1`, for which the RP-LC retention time came out at 887 s.

As to `Cc1ccc(-n2nc3c(N4CCCC(C(=O)N5CCc6ccccc65)C4)nnc(C)c3c2C)cc1` (configuration not stated), the RP-LC retention time was 830 s.

In turn, `O=C(Nc1cccc(Br)c1)C(=O)c1c[nH]c2ccccc12` displayed an RP-LC retention time of 1060 s.

On to `CN1CCCN(C(c2ccccc2)c2ccc(Cl)cc2)CC1` (configuration not stated), for which the RP-LC retention time was 796 s.

`COc1ccc(NC(=O)N2CCc3cn(C)c4cccc(c34)C2)cc1Cl`: the RP-LC retention time came to 917 s.

Regarding `Cc1cc(N2CCN(C(=O)c3ccc4c(c3)OCO4)CC2)nc(N2CCCCC2)n1`, the RP-LC retention time came out at 666 s.

Take `CCc1noc(NC(C)=O)c1-c1ccc(OC)c(S(=O)(=O)NCc2ccc(OC)cc2)c1`: the RP-LC retention time was found to be 758 s.

In the case of `O=C(c1ccccc1)N1CCc2cc(-c3ccno3)ccc21`, the RP-LC retention time came out at 886 s.

With `CCc1ccc(C(=O)NC2CCN(c3ccccc3)C2=O)cc1` (configuration not stated), the RP-LC retention time stood at 811 s.

`Cc1cc(-c2nnc(-c3ccc(F)cc3)o2)c(C)n1CC(=O)Nc1ccc(F)c(F)c1`: the RP-LC retention time amounted to 1040 s.

`O=C(CN1CCC(c2nc(-c3ccccc3)no2)CC1)Nc1ccccc1Br` yielded an RP-LC retention time of 795 s.

The compound `CC(C)(C)NC(=O)c1ccc(-c2nnc3ccc(NC(=O)C4CC4)cn23)cc1` displayed an RP-LC retention time of 731 s.

`COc1ccc(CC(=O)N2CCCC2c2c(C)noc2C)cc1` (configuration not stated): the RP-LC retention time worked out at 727 s.

Regarding `CCN1CCN(Cc2ccc(NC3=NS(=O)(=O)C(c4ccc(OC)cc4)=C3C)cc2)CC1`, the RP-LC retention time was 622 s.

The compound `O=C(C1CCCCC1)N1CCCC(c2n[nH]c(C3CC3)n2)C1` (configuration not stated) returned an RP-LC retention time of 584 s.

In the case of `O=C(Nc1cnn(-c2ncc(N3CCCC3)cn2)c1)c1ccccc1C(F)(F)F`, the RP-LC retention time worked out at 817 s.

For the compound `O=C(CCC(=O)N1CCOc2ccc(Cl)cc21)N1CCN(c2ccccn2)CC1`, the RP-LC retention time was 656 s.

`O=C(Cn1cccc1-c1nnc(C2CCC2)o1)N1CCN(c2ccccc2)CC1`: the RP-LC retention time came to 898 s.

Compound `O=S(=O)(Cc1ccccc1)N1CC(c2nc(Cc3ccccc3)no2)C1` gave an RP-LC retention time of 1010 s.
